Laboratory results from the supplement of paper PMC13207355.
Structures can show the parent of a compound that is named as a salt.

How the values were obtained:
Conditions in all cases: exposure time: 72 h
E21 [1] = patient-derived glioblastoma stem cells of mesenchymal subtype; experiment: phenotypic distance (Euclidean, principal components) from DMSO controls (arbitrary units); higher = stronger morphological change
E13 [2] = patient-derived glioblastoma stem cells of classical subtype; experiment: as above
E28 [3] = patient-derived glioblastoma stem cells of classical subtype; experiment: as above
E34 [4] = patient-derived glioblastoma stem cells of proneural subtype; experiment: as above
E31 [5] = patient-derived glioblastoma stem cells of proneural subtype; experiment: as above
E57 [6] = patient-derived glioblastoma stem cells of mesenchymal subtype; experiment: as above
FT3469 [7] = normal neural stem cell line; experiment: as above
E21 [8] = experiment: surviving fraction (nuclei count normalised to DMSO); higher = more cells surviving (less toxic)
E13 [9] = experiment: as above
E28 [10] = experiment: as above
E34 [11] = experiment: as above
E31 [12] = experiment: as above
E57 [13] = experiment: as above
FT3469 [14] = experiment: as above
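For phenotypic distance (Euclidean, principal components) from DMSO controls in this document: cell Painting imaging in 384-well plates, CellProfiler features reduced to at least 20 principal components, Euclidean distance versus same-plate DMSO vehicle wells (0.1% v/v), median over six images per well.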
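For surviving fraction (nuclei count normalised to DMSO) in this document: nuclei counted by high-content imaging of Hoechst-stained cells in laminin-coated 384-well plates, relative to 0.1% DMSO vehicle wells, with staurosporine as cell-death control.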

OCCN1CCN(CCCN2c3ccccc3Sc3ccc(C(F)(F)F)cc32)CC1 [Fluphenazine dihydrochloride]
Conditions	phenotypic distance	surviving fraction
E13 [2], 4.1 nM	0.431	–
E13 [2], 12.3 nM	0.337	–
E13 [2], 37 nM	0.907	–
E13 [2], 111.1 nM	0.69	–
E13 [2], 333.3 nM	1.57	–
E13 [2], 1000 nM	1.8	–
E13 [2], 3000 nM	2.01	–
E13 [9], 4.1 nM	–	0.959
E13 [9], 12.3 nM	–	1.02
E13 [9], 37 nM	–	1
E13 [9], 111.1 nM	–	1
E13 [9], 333.3 nM	–	0.966
E13 [9], 1000 nM	–	0.816
E13 [9], 3000 nM	–	0.804
E21 [1], 4.1 nM	0.339	–
E21 [1], 12.3 nM	0.421	–
E21 [1], 37 nM	0.601	–
E21 [1], 111.1 nM	0.795	–
E21 [1], 333.3 nM	0.745	–
E21 [1], 1000 nM	0.728	–
E21 [1], 3000 nM	1.26	–
E21 [8], 4.1 nM	–	0.932
E21 [8], 12.3 nM	–	0.986
E21 [8], 37 nM	–	1.08
E21 [8], 111.1 nM	–	0.96
E21 [8], 333.3 nM	–	1.01
E21 [8], 1000 nM	–	0.989
E21 [8], 3000 nM	–	0.938
E28 [3], 4.1 nM	0.832	–
E28 [3], 12.3 nM	0.622	–
E28 [3], 37 nM	0.706	–
E28 [3], 111.1 nM	0.624	–
E28 [3], 333.3 nM	0.662	–
E28 [3], 1000 nM	0.755	–
E28 [3], 3000 nM	0.877	–
E28 [10], 4.1 nM	–	1.13
E28 [10], 12.3 nM	–	0.846
E28 [10], 37 nM	–	1.1
E28 [10], 111.1 nM	–	1.04
E28 [10], 333.3 nM	–	0.899
E28 [10], 1000 nM	–	0.923
E28 [10], 3000 nM	–	1.05
E31 [5], 4.1 nM	0.66	–
E31 [5], 12.3 nM	0.671	–
E31 [5], 37 nM	0.803	–
E31 [5], 111.1 nM	1.17	–
E31 [5], 333.3 nM	1.95	–
E31 [5], 1000 nM	2.4	–
E31 [5], 3000 nM	2.16	–
E31 [12], 4.1 nM	–	1.01
E31 [12], 12.3 nM	–	1.18
E31 [12], 37 nM	–	1.02
E31 [12], 111.1 nM	–	0.932
E31 [12], 333.3 nM	–	1.09
E31 [12], 1000 nM	–	1.22
E31 [12], 3000 nM	–	1.13
E34 [4], 4.1 nM	0.947	–
E34 [4], 12.3 nM	0.375	–
E34 [4], 37 nM	0.734	–
E34 [4], 111.1 nM	0.93	–
E34 [4], 333.3 nM	1.15	–
E34 [4], 1000 nM	0.764	–
E34 [4], 3000 nM	1.17	–
E34 [11], 4.1 nM	–	0.901
E34 [11], 12.3 nM	–	0.986
E34 [11], 37 nM	–	0.911
E34 [11], 111.1 nM	–	0.993
E34 [11], 333.3 nM	–	1.2
E34 [11], 1000 nM	–	1.05
E34 [11], 3000 nM	–	1.06
E57 [6], 4.1 nM	0.619	–
E57 [6], 12.3 nM	0.504	–
E57 [6], 37 nM	0.711	–
E57 [6], 111.1 nM	0.787	–
E57 [6], 333.3 nM	0.901	–
E57 [6], 1000 nM	0.778	–
E57 [6], 3000 nM	1.6	–
E57 [13], 4.1 nM	–	1.02
E57 [13], 12.3 nM	–	1.03
E57 [13], 37 nM	–	1.03
E57 [13], 111.1 nM	–	1
E57 [13], 333.3 nM	–	1.12
E57 [13], 1000 nM	–	1.02
E57 [13], 3000 nM	–	1.15
FT3469 [7], 4.1 nM	0.785	–
FT3469 [7], 12.3 nM	0.668	–
FT3469 [7], 37 nM	0.632	–
FT3469 [7], 111.1 nM	0.808	–
FT3469 [7], 333.3 nM	0.87	–
FT3469 [7], 1000 nM	1.41	–
FT3469 [7], 3000 nM	1.36	–
FT3469 [14], 4.1 nM	–	0.838
FT3469 [14], 12.3 nM	–	1.09
FT3469 [14], 37 nM	–	0.931
FT3469 [14], 111.1 nM	–	1
FT3469 [14], 333.3 nM	–	1.04
FT3469 [14], 1000 nM	–	0.894
FT3469 [14], 3000 nM	–	0.84
